The text below walks through data of BindingDB's records for patent US9669095 (Enanta Pharmaceuticals, 2017).

This test has as its target Genome polyprotein (Hepatitis C virus genotype 1a (isolate H77), UniProt P27958). As to the kind of experiment: HCV Replicon Assay Luciferase. To be noted: 37 °C. Here is the method: Briefly, replicon cells are seeded at 7,000 cells per well in 90 ul DMEM (without phenol red, Invitrogen Cat. #31053-036) per well with 10% FCS, 1% non-essential amino acids, 1% of Glutamax and 1% of 100 penicillin/streptomycin and incubated overnight at 37° C., 5% CO2, 100% relative humidity. 16-20 h after seeding cells, test compounds previously solubilized and titrated in dimethyl sulfoxide ( DMSO") from each X plate and Y plate are diluted 1:100 in DMEM (without phenol red, Invitrogen Cat. #31053-036) with 10% FCS, 1% non-essential amino acids, 1% of Glutamax and 1% of 100 penicillin/streptomycin and added directly to the 96-well plate containing cells and growth medium at a 1:10 dilution for a final dilution of compound and DMSO of 1:1000 ([…]). Drug treated cells are incubated at 37° C., 5% CO2, 100% relative humidity for 72 hours before performing a luciferase assay using 100 ul per well BriteLite Plus (Perkin Elmer) according to the manufacturer's instructions. Data analysis utilizes the method published by Prichard and Shipman (Antiviral Research, 1990. 14:181-205). Using this method, the combination data are analyzed for antagonistic, additive, or synergistic combination effects across the entire combination surface created by the diluted compounds in combination.
On the technique in general: Replicon systems follow genome replication, usually without infectious particles.

Genome polyprotein, sequence (P27958 whole entry): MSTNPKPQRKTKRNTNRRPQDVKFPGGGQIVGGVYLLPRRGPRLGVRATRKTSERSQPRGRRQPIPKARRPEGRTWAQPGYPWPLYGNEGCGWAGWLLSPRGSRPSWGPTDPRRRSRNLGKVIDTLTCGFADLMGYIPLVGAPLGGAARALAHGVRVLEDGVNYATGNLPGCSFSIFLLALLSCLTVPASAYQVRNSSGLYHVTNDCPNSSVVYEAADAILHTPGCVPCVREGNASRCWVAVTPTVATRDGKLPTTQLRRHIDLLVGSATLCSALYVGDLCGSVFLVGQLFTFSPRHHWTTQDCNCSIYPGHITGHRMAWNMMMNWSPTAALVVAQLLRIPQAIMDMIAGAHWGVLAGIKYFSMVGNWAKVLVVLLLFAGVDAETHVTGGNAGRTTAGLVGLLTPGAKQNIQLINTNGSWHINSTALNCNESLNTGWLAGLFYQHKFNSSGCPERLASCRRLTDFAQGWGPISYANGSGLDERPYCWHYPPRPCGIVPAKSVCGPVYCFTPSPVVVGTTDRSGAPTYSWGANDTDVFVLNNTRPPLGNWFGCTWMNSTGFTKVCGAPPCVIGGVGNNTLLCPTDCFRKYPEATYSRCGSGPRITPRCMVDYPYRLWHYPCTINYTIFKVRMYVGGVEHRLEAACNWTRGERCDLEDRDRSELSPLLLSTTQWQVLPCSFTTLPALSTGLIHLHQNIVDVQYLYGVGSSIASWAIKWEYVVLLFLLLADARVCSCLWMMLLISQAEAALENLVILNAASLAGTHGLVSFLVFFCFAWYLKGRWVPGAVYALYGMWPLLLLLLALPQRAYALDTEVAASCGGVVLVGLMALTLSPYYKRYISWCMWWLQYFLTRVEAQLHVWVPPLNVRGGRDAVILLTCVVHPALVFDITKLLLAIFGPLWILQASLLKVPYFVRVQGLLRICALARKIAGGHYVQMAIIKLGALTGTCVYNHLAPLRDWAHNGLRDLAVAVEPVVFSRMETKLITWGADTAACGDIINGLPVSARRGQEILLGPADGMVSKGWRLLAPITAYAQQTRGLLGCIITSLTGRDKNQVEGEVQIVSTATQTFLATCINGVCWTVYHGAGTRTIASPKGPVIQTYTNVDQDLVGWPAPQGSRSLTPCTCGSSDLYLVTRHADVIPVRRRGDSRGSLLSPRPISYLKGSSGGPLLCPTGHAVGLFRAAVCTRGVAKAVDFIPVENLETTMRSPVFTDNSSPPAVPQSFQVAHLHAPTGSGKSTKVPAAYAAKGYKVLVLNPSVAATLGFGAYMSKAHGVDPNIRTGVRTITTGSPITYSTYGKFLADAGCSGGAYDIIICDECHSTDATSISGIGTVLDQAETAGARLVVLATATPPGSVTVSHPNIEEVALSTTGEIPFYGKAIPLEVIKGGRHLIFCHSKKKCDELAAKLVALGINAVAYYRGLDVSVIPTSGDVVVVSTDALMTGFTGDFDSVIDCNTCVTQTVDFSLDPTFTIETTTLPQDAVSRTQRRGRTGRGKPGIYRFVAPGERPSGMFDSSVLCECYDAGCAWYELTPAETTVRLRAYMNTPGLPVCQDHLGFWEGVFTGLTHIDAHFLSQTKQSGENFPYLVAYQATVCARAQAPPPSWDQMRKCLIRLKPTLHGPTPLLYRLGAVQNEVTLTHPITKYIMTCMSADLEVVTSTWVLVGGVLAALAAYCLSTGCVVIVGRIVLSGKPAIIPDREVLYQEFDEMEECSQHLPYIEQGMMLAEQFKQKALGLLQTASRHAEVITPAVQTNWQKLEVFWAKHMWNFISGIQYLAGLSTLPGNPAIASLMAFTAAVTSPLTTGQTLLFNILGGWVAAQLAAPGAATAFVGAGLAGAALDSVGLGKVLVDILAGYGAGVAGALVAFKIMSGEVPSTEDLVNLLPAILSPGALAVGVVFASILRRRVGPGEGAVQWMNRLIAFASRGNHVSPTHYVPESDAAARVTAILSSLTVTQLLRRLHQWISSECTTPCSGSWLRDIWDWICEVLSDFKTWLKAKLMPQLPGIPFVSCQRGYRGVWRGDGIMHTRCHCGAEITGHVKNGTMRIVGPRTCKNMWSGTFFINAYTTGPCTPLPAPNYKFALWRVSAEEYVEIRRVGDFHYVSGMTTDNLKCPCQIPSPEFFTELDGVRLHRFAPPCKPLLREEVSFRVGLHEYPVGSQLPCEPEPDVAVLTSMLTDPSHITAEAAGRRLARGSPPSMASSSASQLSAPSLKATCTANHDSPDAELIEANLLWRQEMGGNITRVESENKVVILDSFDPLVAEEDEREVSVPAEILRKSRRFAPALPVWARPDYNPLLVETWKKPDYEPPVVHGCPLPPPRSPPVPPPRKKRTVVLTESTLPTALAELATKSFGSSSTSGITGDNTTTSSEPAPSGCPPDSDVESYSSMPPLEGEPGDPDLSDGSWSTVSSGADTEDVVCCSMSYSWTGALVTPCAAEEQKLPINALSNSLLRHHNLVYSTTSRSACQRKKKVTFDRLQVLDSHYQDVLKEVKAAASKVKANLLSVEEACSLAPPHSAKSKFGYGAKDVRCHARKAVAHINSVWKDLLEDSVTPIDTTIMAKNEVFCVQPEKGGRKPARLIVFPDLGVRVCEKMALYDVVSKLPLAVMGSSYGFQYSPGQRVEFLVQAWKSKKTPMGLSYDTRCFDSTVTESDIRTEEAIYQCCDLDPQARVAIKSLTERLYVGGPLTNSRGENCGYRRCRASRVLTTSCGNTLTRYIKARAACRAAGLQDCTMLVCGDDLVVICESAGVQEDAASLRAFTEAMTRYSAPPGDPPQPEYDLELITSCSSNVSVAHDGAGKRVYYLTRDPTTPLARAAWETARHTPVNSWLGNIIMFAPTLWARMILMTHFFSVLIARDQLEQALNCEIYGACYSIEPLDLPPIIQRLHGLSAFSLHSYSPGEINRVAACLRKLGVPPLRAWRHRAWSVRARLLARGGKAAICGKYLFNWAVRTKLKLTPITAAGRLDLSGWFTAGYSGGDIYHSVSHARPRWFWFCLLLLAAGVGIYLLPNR

Turning to `C/C=C/C[C@@H](C)C(=O)[C@@H]1NC(=O)[C@H](C(C)C)N(C)C(=O)[C@H](CC(C)C)N(C)C(=O)[C@H](CC(C)C)N(C)C(=O)[C@@H](C)NC(=O)[C@H](C)NC(=O)[C@H](CC(C)C)N(C)C(=O)[C@H](C(C)C)NC(=O)[C@H](C(C)(C)CNC)N(C)C(=O)[C@@H](C)N(C)C(=O)[C@H](CC)NC1=O` [US9669095, 1], the EC50 (as a rule, the concentration giving half of the maximal effect) is “in the range around 55 nM”. Then `CCCC[C@@H](C)C(=O)[C@@H]1NC(=O)[C@H](C(C)C)N(C)C(=O)[C@H](CC(C)C)N(C)C(=O)[C@H](CC(C)C)N(C)C(=O)[C@@H](C)NC(=O)[C@H](C)NC(=O)[C@H](CC(C)C)N(C)C(=O)[C@H](C(C)C)NC(=O)[C@H](C(C)(C)CO)N(C)C(=O)[C@@H](C)N(C)C(=O)[C@H](CC)NC1=O` [US9669095, 2], with “in the range around 55 nM”. With `CCCC[C@@H](C)C(=O)[C@@H]1NC(=O)[C@H](C(C)C)N(C)C(=O)[C@H](CC(C)C)N(C)C(=O)[C@H](CC(C)C)N(C)C(=O)[C@@H](C)NC(=O)[C@H](C)NC(=O)[C@H](CC(C)C)N(C)C(=O)[C@H](C(C)C)NC(=O)[C@H](C(C)(C)COC(=O)NC)N(C)C(=O)[C@@H](C)N(C)C(=O)[C@H](CC)NC1=O` [US9669095, 3], the EC50 entry was “in the range around 55 nM”. Regarding `CCCC[C@@H](C)C(=O)[C@@H]1NC(=O)[C@H](C(C)C)N(C)C(=O)[C@H](CC(C)C)N(C)C(=O)[C@H](CC(C)C)N(C)C(=O)[C@@H](C)NC(=O)[C@H](C)NC(=O)[C@H](CC(C)C)N(C)C(=O)[C@H](C(C)C)NC(=O)[C@H](C(C)(C)COC(=O)N(C)C)N(C)C(=O)[C@@H](C)N(C)C(=O)[C@H](CC)NC1=O` [US9669095, 4], the EC50 result is “in the range around 55 nM”. With `C/C=C/C[C@@H](C)C(=O)[C@@H]1NC(=O)[C@H](C(C)C)N(C)C(=O)[C@H](CC(C)C)N(C)C(=O)[C@H](CC(C)C)N(C)C(=O)[C@@H](C)NC(=O)[C@H](C)NC(=O)[C@H](CC(C)C)N(C)C(=O)[C@H](C(C)C)NC(=O)[C@H](C(C)(C)COC(=O)NC)N(C)C(=O)[C@@H](C)N(C)C(=O)[C@H](CC)NC1=O` [US9669095, 5], the EC50 entry is “in the range around 55 nM”. Then `CC[C@@H]1NC(=O)[C@H](C(=O)[C@H](C)CCCCCN2CCOCC2)NC(=O)[C@@H](C(C)C)N(C)C(=O)[C@H](CC(C)C)N(C)C(=O)[C@H](CC(C)C)N(C)C(=O)[C@@H](C)NC(=O)[C@H](C)NC(=O)[C@@H](CC(C)C)N(C)C(=O)[C@H](C(C)C)NC(=O)[C@H](C(C)(C)CN(C)C(=O)OC)N(C)C(=O)[C@@H](C)N(C)C1=O` [US9669095, 6], with “in the range around 55 nM”; and `CC[C@@H]1NC(=O)[C@H](C(=O)[C@H](C)CCCCCSc2nnnn2C)NC(=O)[C@H](C(C)C)N(C)C(=O)[C@H](CC(C)C)N(C)C(=O)[C@H](CC(C)C)N(C)C(=O)[C@@H](C)NC(=O)[C@H](C)NC(=O)[C@H](CC(C)C)N(C)C(=O)[C@H](C(C)C)NC(=O)[C@H](C(C)(C)CN(C)C(=O)OC)N(C)C(=O)[C@@H](C)N(C)C1=O` [US9669095, 7], with “in the range around 55 nM”; and `CC[C@@H]1NC(=O)[C@H](C(=O)[C@H](C)CCCCCN2CCOCC2)NC(=O)[C@H](C(C)C)N(C)C(=O)[C@H](CC(C)C)N(C)C(=O)[C@H](CC(C)C)N(C)C(=O)[C@@H](C)NC(=O)[C@H](C)NC(=O)[C@H](CC(C)C)N(C)C(=O)[C@H](C(C)C)NC(=O)[C@H](C(C)(C)CN(C)C(=O)[C@@H](NC(=O)OC)C(C)C)N(C)C(=O)[C@@H](C)N(C)C1=O` [US9669095, 8], with “in the range around 55 nM”. `CC[C@@H]1NC(=O)[C@H](C(=O)[C@H](C)CCCCCSc2nnnn2C)NC(=O)[C@@H](C(C)C)N(C)C(=O)[C@H](CC(C)C)N(C)C(=O)[C@H](CC(C)C)N(C)C(=O)[C@@H](C)NC(=O)[C@H](C)NC(=O)[C@@H](CC(C)C)N(C)C(=O)[C@H](C(C)C)NC(=O)[C@H](C(C)(C)CN(C)C(=O)[C@@H](NC(=O)OC)C(C)C)N(C)C(=O)[C@@H](C)N(C)C1=O` [US9669095, 9]: the EC50 entry is “in the range around 55 nM”. Under `C/C=C/C[C@@H](C)C1ON2C(=O)[C@H](C(C)C)N(C)C(=O)[C@H](CC(C)C)N(C)C(=O)[C@@H](CC(C)C)N(C)C(=O)[C@@H](C)NC(=O)[C@H](C)NC(=O)[C@H](CC(C)C)N(C)C(=O)[C@H](C(C)C)NC(=O)[C@H](C(C)(C)COC(=O)NS(C)(=O)=O)N(C)C(=O)[C@@H](C)N(C)C(=O)[C@H](CC)NC(=O)[C@H]12` (stereo partly drawn) [US9669095, 11] stands > 1000 nM. Then `C/C=C/C[C@@H](C)C1ON2C(=O)[C@H](C(C)C)N(C)C(=O)[C@H](CC(C)C)N(C)C(=O)[C@@H](CC(C)C)N(C)C(=O)[C@@H](C)NC(=O)[C@H](C)NC(=O)[C@H](CC(C)C)N(C)C(=O)[C@H](C(C)C)NC(=O)[C@H](C(C)(C)COC(=O)NS(=O)(=O)c3ccccc3)N(C)C(=O)[C@@H](C)N(C)C(=O)[C@H](CC)NC(=O)[C@H]12` (stereo partly drawn) [US9669095, 12], with “in the range around 550 nM”; and `C/C=C/C[C@@H](C)C1ON2C(=O)[C@H](C(C)C)N(C)C(=O)[C@H](CC(C)C)N(C)C(=O)[C@@H](CC(C)C)N(C)C(=O)[C@@H](C)NC(=O)[C@H](C)NC(=O)[C@H](CC(C)C)N(C)C(=O)[C@H](C(C)C)NC(=O)[C@H](C(C)(C)CN(C)C(=O)NS(C)(=O)=O)N(C)C(=O)[C@@H](C)N(C)C(=O)[C@H](CC)NC(=O)[C@H]12` (stereo partly drawn) [US9669095, 13], with “in the range around 550 nM”; and `C/C=C/C[C@@H](C)C1ON2C(=O)[C@H](C(C)C)N(C)C(=O)[C@H](CC(C)C)N(C)C(=O)[C@@H](CC(C)C)N(C)C(=O)[C@@H](C)NC(=O)[C@H](C)NC(=O)[C@H](CC(C)C)N(C)C(=O)[C@H](C(C)C)NC(=O)[C@H](C(C)(C)CN(C)C(=O)NS(=O)(=O)c3ccccc3)N(C)C(=O)[C@@H](C)N(C)C(=O)[C@H](CC)NC(=O)[C@H]12` (stereo partly drawn) [US9669095, 14], with “in the range around 550 nM”.
